Reference: patent US9155761B2, “Method for the treatment of cancer” (UNIVERSITY COLLEGE CORK, NATIONAL UNIVERSITY OF IRELAND, …, priority 2009, dated 2015)
“Also recorded” adds a separate entry of the source.

Legend:
[1] = tested on: KYSE450; assay: Evaluation of cell death morphology by light microscopy; assay type: cell-based, human
Experimental: (§1) Morphological features of cells treated with 5-fluorouracil (5-FU)/cisplatin, without and with 3-MA, LY294002, Bafilomycin, Lithium chloride, rapamycin or HA14-I were examined by light microscopy. Morphologies of treated cells were examined 24 and 48 hours post treatment, treatment times are referred to in figure legends. Aliquots of vehicle control and drug treated cells were cytospun onto glass slides and stained with Rapi-Diff (Braidwood laboratories, UK). The extent of apoptotic and non-apoptotic cell death was determined by counting the cells in at least three fields of view per slide, with an average of ˜100 cells per field. Apoptotic cell death is characterized by the presence of two or more of the following morphological features: cell shrinkage, chromatin condensation, DNA degradation and fragmentation into ‘apoptotic bodies’, within an intact plasma membrane. Autophagic cell death was identified by clear elevation of cytoplasmic vesicles, loss of cytoplasmic material, pyknosis of the nuclear material and an intact nuclear membrane. Cytospin images are representative of at least three independent experiments.

[2] = tested on: OE19; assay: as above; assay type: cell-based, human; settings: 5-FU (50 μM) or cisplatin (40 μM), 48 hours
Experimental: as §1

[3] = tested on: OE33; assay: as above; assay type: cell-based, human; settings: 5-FU (50 μM) or cisplatin (40 μM), 48 hours
Experimental: as §1

[4] = tested on: active caspase-3 in KYSE450 cells; assay: Active caspase-3 by flow cytometry; assay type: cell-based, human; settings: 48 hours after treatment, range of concentrations
Experimental: (§2) To examine control and 5-Fluorouracil treated cells for evidence of caspase activity cells were processed by trypsinization, 48 hours after treatment. […] This was detected with an anti rabbit FITC conjugated secondary antibody, and samples were analyzed by FACScan at 530 nm (FL-1). Percentages indicate the proportion of cells with active caspase-3, detected as an increase in the number of FITC (FL-1) labelled cells.

[5] = tested on: active caspase-3 in OE19 cells; assay: Active caspase-3 by flow cytometry; assay type: cell-based, human; settings: 48 hours after treatment
Experimental: as §2

[6] = tested on: active caspase-3 in OE21 cells; assay: Active caspase-3 by flow cytometry; assay type: cell-based, human
Experimental: as §2

[7] = tested on: active caspase-3 in OE33 cells; assay: Active caspase-3 by flow cytometry; assay type: cell-based, human; settings: 48 hours after treatment
Experimental: as §2

[8] = tested on: CT26 (Colorectal carcinoma cells); assay: CT26 colorectal carcinoma model, intratumoural Rapamycin / 5-FU; assay type: in vivo, mice; settings: intratumoural thrice weekly; Rapamycin 0.6-2 mg/kg; 5-FU 20 mg/kg
Experimental: For routine tumour induction, 1×10^6 CT26 (Colorectal carcinoma cells) suspended in 200 μl of serum free DMEM are injected subcutaneously into the right flank of adult female Balb/c mice, after anaesthesia. Mice are randomly divided into experimental groups. Mice are treated at a tumour volume of approximately 60 mm^3 in volume (5-7 mm major diameter). […] Following drug treatment, tumours are monitored by alternate day measurements in two dimensions, using Verniers Calipers. Tumor volumes are calculated according to the formula V=ab^2/6, where ‘a’ is the longest diameter of the tumor and ‘b’ is the longest diameter perpendicular to diameter ‘a’. Animals are culled when tumour volumes exceed ˜500 mm^3 (no greater than 15 mm in diameter). […] Treatment of these animals is maintained until day 58, following which all treatments cease.

In the case of `O=c1[nH]cc(F)c(=O)[nH]1` [5-FU, 5-fluorouracil], the cell death morphology ([1]; 5-FU (50 μM) or cisplatin (40 μM), 48 hours) is reported as “predominantly non-apoptotic morphology”, the morphology ([1]; HA14-1 (5 μM) and/or 5-FU (50 μM), 24 hours) is reported as “causes autophagic phenotype” and the cell death morphology [2] is reported as “predominantly non-apoptotic morphology”. The cell death morphology [3] was “predominantly apoptotic cell death morphology”, the “active caspase-3” value [4] was “do not show caspase-3 activity; also recorded: fail to show any active caspase-3” and the “active caspase-3” value [5] was “do not show caspase-3 activity”. For the same compound, the “proportion of cells with active caspase-3” value ([6]; 5-FU (25 μM/50 μM), 48 hours) was 44%, the “active caspase-3” value ([6]; 48 hours after treatment) was “displayed active caspase-3” and the “active caspase-3” value [7] was “displayed active caspase-3”. For the same compound, the “survival: day beyond which no animal of the group is alive / final animal euthanized” value [8] was 33 days.
